T1: Prx4 (Homo sapiens, UniProt Q13162)
T1 construct: gene PRDX4; His-tagged wild type human Prx4
T1 sequence (Q13162 38-271): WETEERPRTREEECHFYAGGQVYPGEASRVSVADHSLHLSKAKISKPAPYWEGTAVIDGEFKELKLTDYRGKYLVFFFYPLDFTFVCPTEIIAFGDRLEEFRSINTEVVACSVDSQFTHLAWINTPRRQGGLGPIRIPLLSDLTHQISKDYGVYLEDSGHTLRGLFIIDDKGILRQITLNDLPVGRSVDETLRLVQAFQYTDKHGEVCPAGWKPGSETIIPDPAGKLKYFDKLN

T2: PKG1α (Homo sapiens, UniProt Q13976)
T2 construct: gene PRKG1; purified recombinant PKG1α, His-tag cleaved
T2 sequence (Q13976 2-671): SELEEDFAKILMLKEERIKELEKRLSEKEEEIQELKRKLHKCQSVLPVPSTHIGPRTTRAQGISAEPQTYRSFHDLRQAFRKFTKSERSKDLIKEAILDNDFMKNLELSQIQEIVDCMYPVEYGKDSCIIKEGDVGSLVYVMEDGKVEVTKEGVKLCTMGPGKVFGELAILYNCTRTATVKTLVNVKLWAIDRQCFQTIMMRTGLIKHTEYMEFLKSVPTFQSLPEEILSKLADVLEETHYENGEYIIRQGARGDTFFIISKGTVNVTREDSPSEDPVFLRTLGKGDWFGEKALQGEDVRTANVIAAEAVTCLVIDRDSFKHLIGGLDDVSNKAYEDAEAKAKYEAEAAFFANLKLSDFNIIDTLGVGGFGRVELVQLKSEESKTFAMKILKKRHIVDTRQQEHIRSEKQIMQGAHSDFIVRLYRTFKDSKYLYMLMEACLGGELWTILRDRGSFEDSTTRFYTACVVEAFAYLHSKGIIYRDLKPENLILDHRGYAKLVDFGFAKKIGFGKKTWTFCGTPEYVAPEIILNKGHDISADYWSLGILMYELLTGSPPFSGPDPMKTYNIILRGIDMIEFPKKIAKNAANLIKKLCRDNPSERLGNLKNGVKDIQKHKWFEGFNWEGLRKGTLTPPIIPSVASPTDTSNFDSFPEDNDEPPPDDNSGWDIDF

T3: GPx4 (Rattus norvegicus, UniProt P36970)
T3 construct: GPx4 isolated from rat testis mitochondria
T3 sequence (P36970 28-197): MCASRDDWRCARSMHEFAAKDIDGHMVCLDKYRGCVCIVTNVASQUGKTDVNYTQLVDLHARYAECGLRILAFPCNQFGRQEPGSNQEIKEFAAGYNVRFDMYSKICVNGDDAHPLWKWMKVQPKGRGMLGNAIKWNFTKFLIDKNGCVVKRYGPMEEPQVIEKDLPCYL

B1: purified recombinant human protein kinase G 1α (PKG1α) (enzyme, UniProt Q13976 1-671, looked up)
chain: MSELEEDFAKILMLKEERIKELEKRLSEKEEEIQELKRKLHKCQSVLPVPSTHIGPRTTRAQGISAEPQTYRSFHDLRQAFRKFTKSERSKDLIKEAILDNDFMKNLELSQIQEIVDCMYPVEYGKDSCIIKEGDVGSLVYVMEDGKVEVTKEGVKLCTMGPGKVFGELAILYNCTRTATVKTLVNVKLWAIDRQCFQTIMMRTGLIKHTEYMEFLKSVPTFQSLPEEILSKLADVLEETHYENGEYIIRQGARGDTFFIISKGTVNVTREDSPSEDPVFLRTLGKGDWFGEKALQGEDVRTANVIAAEAVTCLVIDRDSFKHLIGGLDDVSNKAYEDAEAKAKYEAEAAFFANLKLSDFNIIDTLGVGGFGRVELVQLKSEESKTFAMKILKKRHIVDTRQQEHIRSEKQIMQGAHSDFIVRLYRTFKDSKYLYMLMEACLGGELWTILRDRGSFEDSTTRFYTACVVEAFAYLHSKGIIYRDLKPENLILDHRGYAKLVDFGFAKKIGFGKKTWTFCGTPEYVAPEIILNKGHDISADYWSLGILMYELLTGSPPFSGPDPMKTYNIILRGIDMIEFPKKIAKNAANLIKKLCRDNPSERLGNLKNGVKDIQKHKWFEGFNWEGLRKGTLTPPIIPSVASPTDTSNFDSFPEDNDEPPPDDNSGWDIDF
notes: human cGMP-dependent protein kinase 1, isoform alpha (PKG1α); also called PK1α; source: FreeStyle 293-F cells, transfected, purified (Ni-NTA, HiTrap Q), His-tag cleaved with TEV protease
B2: His-tagged wild type human Prx2 (peroxiredoxin 2) (enzyme, UniProt P32119 1-198, looked up)
chain: MASGNARIGKPAPDFKATAVVDGAFKEVKLSDYKGKYVVLFFYPLDFTFVCPTEIIAFSNRAEDFRKLGCEVLGVSVDSQFTHLAWINTPRKEGGLGPLNIPLLADVTRRLSEDYGVLKTDEGIAYRGLFIIDGKGVLRQITVNDLPVGRSVDEALRLVQAFQYTDEHGEVCPAGWKPGSDTIKPNVDDSKEYFSKHN
notes: human peroxiredoxin 2 (Prx2), wild type; also called His-tagged Prx2; pre-reduced His-tagged Prx2; source: E. coli BL21 (DE3), pET-28a, purified (Ni-NTA)
B3: untagged human Prx2 (His-tag cleaved with Factor Xa) (enzyme, UniProt P32119 1-198, looked up)
chain: B2 chain
notes: human peroxiredoxin 2 (Prx2), wild type; also called untagged Prx2; source: E. coli BL21 (DE3), pET-28a, purified (Ni-NTA), tag cleaved with Factor Xa

What was measured:
Prx4 = molecular target: T1, Prx4; assay: redox blotting, estimated rate constant at […] °C; assay type: biochemical
PKG1α = molecular target: T2, PKG1α; assay: oxidative dimerization of purified PKG1α, non-reducing SDS-PAGE; assay type: biochemical
GPx4 = molecular target: T3, GPx4; assay: coupled NADPH oxidation assay, apparent second-order rate constant; assay type: biochemical
[1] = molecular target: the molecule itself; assay: non-reducing SDS-PAGE (disulfide-linked dimer); purified PKG1α (3.3 uM) with 200 uM cis-WOOH or H2O2, 5 min, 25 °C, 25 mM phosphate pH 7.0, 200 uM TCEP; stopped with 125 mM maleimide; non-reducing 4-12% SDS-PAGE, silver stain
[2] = molecular target: the molecule itself; assay: non-reducing SDS-PAGE (disulfide-linked dimer, redox blotting); purified pre-reduced Prx (20 uM) incubated with cis-WOOH, trans-WOOH (1-20 uM) or H2O2 (2.5-20 uM) for 10 s at 5 °C in 50 mM sodium phosphate pH 7.4 with 100 uM DTPA; NEM 50 mM; non-reducing 4-12% SDS-PAGE, silver stain; monomer and dimer bands

Molecule | redox blotting, estimated rate constant at 5 °C (Prx4) | coupled NADPH oxidation assay, apparent second-order rate constant (GPx4) | binding result [2] | further results
O=C(O)[C@@H]1C[C@@]2(OO)c3ccccc3N[C@H]2N1 [cis-WOOH] | ~ 10^3 M^−1 s^−1 | 1e+06 M⁻¹ s⁻¹ | – | oxidative dimerization of purified PKG1α, non-reducing SDS-PAGE (PKG1α): cis-WOOH caused greater PKG1α dimerization than the same concentrations of H2O2
O=C(O)[C@@H]1C[C@]2(OO)c3ccccc3N[C@@H]2N1 [trans-WOOH] | ~ 10^3 M^−1 s^−1 | 1.6e+06 M⁻¹ s⁻¹ | – | –
B1 | – | – | – | binding result [1]: binds
B2 | – | – | binds | –
B3 | – | – | binds | –

— article PMC8595612, “Hydrogen peroxide signaling via its transformation to a stereospecific alkyl hydroperoxide that escapes reductive inactivation” (Nature Communications, 2021)
